Measurements as given in US11098040B2, “Compounds and methods of use” (Ferro Therapeutics, Inc., priority 2018, dated 2021).

Assays:
[1] = system: AsPC-1; assay: Cell viability assay (CellTiter Glo), pancreatic adenocarcinoma AsPC-1; format: cell-based; details: Homo sapiens, ASPC1; pancreatic adenocarcinoma, ascites, 96 hours, CellTiter Glo; read-out: IC50 AsPC-1
Description: (§1) Cell viability assay was performed to assess the potency of the compounds in human cancer cell lines KP4 (pancreatic ductal adenocarcinoma), MiaPaCa-2 (pancreatic carcinoma), AsPC-1 (pancreatic adenocarcinoma, ascites), 143B (osteosarcoma), and SJSA-1 (osteosarcoma). Selected compounds were also assayed in a human breast epithelial cell line MCF-10A, a nontumorigenic cell line as a control to assess differential activity. Cells at a density of 500-5,000 cells/well were seeded in 96-well plates and incubated at 37° C. overnight. A series of 9 different concentrations of compound stocks (500×) were created by 3-fold serial dilution in DMSO. These compounds were further diluted in culture media and then added to cells so that the final DMSO concentration was equal to 0.25% or less. After 96 hours of incubation, 50 μL of CellTiter Glo reagent (Promega) was added to each well and luminescence was measured after 10 minutes using EnVision (PerkinElmer). Compounds titrated from top concentration of up to 30 μM. The select compounds were tested initially from 30 μM as the top concentration in duplicates (range of 4.6 nM-30 μM). […] Luminescence from cells treated with DMSO alone was set as Max and % of inhibition was calculated as follows: Inhibition %=(Max-Sample value)/Max*100. Data was analyzed using XL-fit software (ID Business Solutions Ltd.). IC50, relative IC50, or % of top inhibition was calculated.
The results of the assay in the pancreatic cell lines are given in Table 15a for PANC1, Table 15b for MiaPaCa-2, and Table 15c for AsPC-1.

[2] = Whole blood stability, mouse; format: in vitro ADME
From the text: (§2) The results of the assay on stability in blood and IC50 values for pancreatic cancer cell line KP4 are given below in Table 24.

[3] = system: KP4; assay: Cell viability assay (CellTiter Glo), pancreatic ductal adenocarcinoma KP4; format: cell-based, human; details: Homo sapiens, KP-4, 96 h, pancreatic cancer cell line KP4, 96 hours, CellTiter Glo; read-out: IC50 μM KP4
Summary of the method: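 Luminescent ATP readout (CellTiter Glo) after 96 h compound exposure, normalized to DMSO-treated cells as maximum. Compounds ran in duplicate, nine 3-fold steps from 30 μM down to 4.6 nM, final DMSO ≤0.25%; KP4 plated overnight at 1,000–10,000 cells/well. Outputs: IC50, relative IC50 or % top inhibition.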

[4] = Whole blood stability, human; format: in vitro ADME
From the text: as §2

[5] = system: MCF-10A; assay: Cell viability assay (CellTiter Glo), non-tumorigenic breast epithelial cell line MCF-10A; format: cell-based; details: Homo sapiens, 96 hours
Summary of the method: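 Non-tumorigenic breast epithelial MCF-10A line, exposed for 96 hours to compound (top concentration up to 30 μM, 3-fold steps, duplicates, final DMSO 0.25% or less). ATP luminescence (CellTiter Glo) normalised to DMSO controls yields IC50, relative IC50 or % top inhibition; paclitaxel served as cytotoxic control.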

[6] = system: 143B; assay: Cell viability assay (CellTiter Glo), osteosarcoma 143B; format: cell-based; details: Homo sapiens, 96 h, osteosarcoma, 96 hours, CellTiter Glo, read-out: IC50 143B
Description: as §1
(§3) The results of the assay in sarcoma cell lines are given in Table 21a for HT-1080 luc2 (fibrosarcoma expressing a luciferase gene), Table 21b for 143B (osteosarcoma), and Table 21c for SJSA-1 (osteosarcoma).

[7] = system: SJSA-1; assay: Cell viability assay (CellTiter Glo), osteosarcoma SJSA-1; format: cell-based; details: Homo sapiens, 96 hours
Description: as §1, §3

[8] = system: MiaPaCa-2; assay: Cell viability assay (CellTiter Glo), pancreatic carcinoma MiaPaCa-2; format: cell-based; details: Homo sapiens, MIA PaCa-2; pancreatic carcinoma, 96 hours, CellTiter Glo; read-out: IC50 MiaPaCa-2
Summary of the method: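 MiaPaCa-2 and AsPC-1 cells were seeded overnight at 37 °C and exposed for 96 h to 9-point, 3-fold dilutions from up to 30 μM (final DMSO ≤0.25%). CellTiter Glo luminescence was read, and inhibition was calculated relative to DMSO-only cells. IC50, relative IC50 or % top inhibition was derived.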

SMILES	IC50 [1] [nM]	Whole Blood Stability % Remaining at 37° C. Mouse ([2]; 0 min) [%]	Whole Blood Stability % Remaining at 37° C. Mouse ([2]; 30 min) [%]	Whole Blood Stability % Remaining at 37° C. Mouse ([2]; 60 min) [%]	IC50 [3] [µM]	Whole Blood Stability % Remaining at 37° C. Human ([4]; 0 min) [%]	Whole Blood Stability % Remaining at 37° C. Human ([4]; 30 min) [%]	Whole Blood Stability % Remaining at 37° C. Human ([4]; 60 min) [%]	IC50 [6] [nM]	IC50 [7] [nM]	IC50 [8] [nM]	IC50 [5] [nM]
CC(C)(C)OC(=O)c1ccc([C@H]2c3[nH]c4ccccc4c3C[C@H](C(=O)OC(C)(C)C)N2C(=O)CCl)cc1 [Example 19]									101	215	63	430
CNS(=O)(=O)c1ccc([C@H]2c3[nH]c4ccccc4c3C[C@H](C(=O)OC)N2C(=O)CCl)cc1 [Example 22]									74	202	39	3300
CC(C)OC(=O)[C@H]1Cc2c([nH]c3ccccc23)[C@H](c2ccc(C(=O)OC(C)(C)C)cc2)N1C(=O)CCl [Example 20]									75	149	37	820
CN(C)C(=O)[C@H]1Cc2c([nH]c3ccccc23)[C@H](c2ccc(C(=O)OC(C)(C)C)cc2)N1C(=O)CCl [Example 21]									90	170	64	1580
CC(C)(C)OC(=O)[C@H]1Cc2c([nH]c3ccccc23)[C@H](c2ccc([N+](=O)[O-])cc2)N1C(=O)CCl [Example 11]									135	327	91	
COC(=O)[C@H]1Cc2c([nH]c3ccccc23)[C@H](c2ccc(C(=O)OC[C@]34C[C@H]5C[C@H](C[C@H](C5)C3)C4)cc2)N1C(=O)CCl [Example 6]									87	146	55	3760

More lines, main results first:

IC50 [1] [nM]	Whole Blood Stability % Remaining at 37° C. Mouse ([2]; 0 min) [%]	Whole Blood Stability % Remaining at 37° C. Mouse ([2]; 30 min) [%]	Whole Blood Stability % Remaining at 37° C. Mouse ([2]; 60 min) [%]	IC50 [3] [µM]	Whole Blood Stability % Remaining at 37° C. Human ([4]; 0 min) [%]	Whole Blood Stability % Remaining at 37° C. Human ([4]; 30 min) [%]	Whole Blood Stability % Remaining at 37° C. Human ([4]; 60 min) [%]	IC50 [6] [nM]	IC50 [7] [nM]	IC50 [8] [nM]	SMILES	IC50 [5] [nM]
30	100.0	65.4	30.7	< 0.01	100.0	73.5	40.8				[2H]C([2H])(Cl)C(=O)N1[C@@H](c2ccc(C(=O)OC(C)(C)C)cc2)c2[nH]c3ccccc3c2C[C@@H]1C(=O)OC [BZ]	590
								104	200	24	COC(=O)[C@H]1Cc2c([nH]c3ccccc23)[C@H](c2ccc(C(=O)NCCNC(=O)OC(C)(C)C)cc2)N1C(=O)CCl [Example 16]	1950
								32	69	12	COC(=O)[C@H]1Cc2c([nH]c3ccccc23)[C@H](c2ccc(C(=O)NC(C)(C)C)cc2)N1C(=O)CCl [Example 9]	2270
								81	149	69	COC(=O)[C@H]1Cc2c([nH]c3ccccc23)[C@H](c2ccc(OC(C)=O)cc2)N1C(=O)CCl [Example 12]	1420
								273	687	119	CNC(=O)c1ccc([C@H]2c3[nH]c4ccccc4c3C[C@H](C(=O)OC)N2C(=O)CCl)cc1 [Example 7]	
23	100.0	80.8	33.2	< 0.01	100.0	86.9	48.9				[2H]C([2H])([2H])OC(=O)[C@H]1Cc2c([nH]c3ccccc23)[C@H](c2ccc(C(=O)OC(C)(C)C)cc2)N1C(=O)CCl [CA]	470
								109	157	131	COC(=O)[C@H]1Cc2c([nH]c3ccccc23)[C@H](c2ccc(OC(=O)C(C)(C)C)cc2)N1C(=O)CCl [Example 13]	3050
								143	250	77	COC(=O)[C@H]1Cc2c([nH]c3ccccc23)[C@H](c2ccc(C(=O)N(C)C)cc2)N1C(=O)CCl [Example 8]	
								153	236	60	COC(=O)c1ccc([C@H]2c3[nH]c4ccccc4c3C[C@H](C(=O)OC(C)(C)C)N2C(=O)CCl)cc1 [Example 2]	
